The results in this text go back to patent publication US7700604B2, “Hydantoin derivatives as metalloproteinase inhibitors” (AstraZeneca AB, priority 2004, dated 2010).

What all share (type): biochemical
The target in assay [1] is T1, Recombinant human MMP14 catalytic domain (Homo sapiens, UniProt P50281).
T1 construct: Recombinant human MMP14 catalytic domain; made in house
Description: Isolated enzyme assay MMP14 (fluorogenic substrate). The following applies: substrate Mca-Pro-Cha-Gly-Nva-His-Ala-Dpa-NH2 10 μM, 60 minutes at room temperature, pH 7.5, read-out: hMMP14 IC50. The method, then: Recombinant human MMP14 catalytic domain may be expressed and purified as described by Parkar A. A. et al, (2000), Protein Expression and Purification, 20, 152. The purified enzyme can be used to monitor inhibitors of activity as follows: MMP14 (10 ng/ml final concentration) is incubated for 60 minutes at room temperature with the synthetic substrate Mca-Pro-Cha-Gly-Nva-His-Ala-Dpa-NH2 (10 μM) in assay buffer (0.1M “Tris-HCl” (trade mark) buffer, pH 7.5 containing 0.1M NaCl, 20 mM CaCl2, 0.020 mM ZnCl and 0.05% (w/v) “Brij 35” (trade mark) detergent) in the presence (5 concentrations) or absence of inhibitors. Activity is determined by measuring the fluorescence at λex 320 nm and λem 405 nm. Percent inhibition is calculated as follows: % Inhibition is equal to the [Fluorescenceplus inhibitor−Fluorescencebackground] divided by the [Fluorescenceminus inhibitor−Fluorescencebackground].

The target in assay [2] is T2, Recombinant human MMP9 catalytic domain (Homo sapiens, UniProt P14780).
T2 sequence (P14780 with tags, fused parts or gaps DEL216-390): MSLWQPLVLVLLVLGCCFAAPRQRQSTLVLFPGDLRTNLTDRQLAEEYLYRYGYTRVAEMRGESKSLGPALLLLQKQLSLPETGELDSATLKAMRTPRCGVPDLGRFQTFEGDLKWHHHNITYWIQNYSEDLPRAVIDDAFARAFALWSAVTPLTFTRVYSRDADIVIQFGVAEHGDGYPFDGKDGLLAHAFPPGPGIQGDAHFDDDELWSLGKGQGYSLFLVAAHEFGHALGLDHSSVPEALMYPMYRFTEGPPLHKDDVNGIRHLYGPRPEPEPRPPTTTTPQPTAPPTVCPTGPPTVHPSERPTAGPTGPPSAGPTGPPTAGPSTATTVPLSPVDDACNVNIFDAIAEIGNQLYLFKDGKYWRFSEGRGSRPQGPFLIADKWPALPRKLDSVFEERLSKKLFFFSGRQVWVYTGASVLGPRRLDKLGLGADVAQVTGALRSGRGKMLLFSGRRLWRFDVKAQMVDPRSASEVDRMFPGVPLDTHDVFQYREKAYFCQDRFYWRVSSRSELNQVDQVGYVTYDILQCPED
Briefly: Isolated enzyme assay MMP9 (fluorogenic substrate). The conditions noted are these: substrate Mca-Pro-Cha-Gly-Nva-His-Ala-Dpa-NH2 5 μM, 30 minutes at RT, pH 7.3, read-out: hMMP9 IC50. The method, then: Recombinant human MMP9 catalytic domain was expressed and then purified by Zn chelate column chromatography followed by hydroxamate affinity column chromatography. The enzyme can be used to monitor inhibitors of activity as follows: MMP9 (5 ng/ml final concentration) is incubated for 30 minutes at RT with the synthetic substrate Mca-Pro-Cha-Gly-Nva-His-Ala-Dpa-NH2 (5 μM) in assay buffer (0.1M “Tris-HCl” (trade mark) buffer, pH 7.3 containing 0.1M NaCl, 20 mM CaCl2, 0.020 mM ZnCl and 0.05% (w/v) “Brij 35” (trade mark) detergent) in the presence (10 concentrations) or absence of inhibitors. Activity is determined by measuring the fluorescence at λex 320 nm and λem 405 nm. Percent inhibition is calculated as follows: % Inhibition is equal to the [Fluorescenceplus inhibitor−Fluorescencebackgound] divided by the [Fluorescenceminus inhibitor−Fluorescencebackground]. […]

In assay [3] the target is T3, Recombinant human MMP12 catalytic domain (Homo sapiens, UniProt P39900).
T3 construct: Recombinant human MMP12 catalytic domain; made in house
Description: Isolated enzyme assay MMP12 (fluorogenic substrate). The conditions noted are these: substrate Mca-Pro-Cha-Gly-Nva-His-Ala-Dpa-NH2 10 μM, 60 minutes at room temperature, pH 7.3, read-out: hMMP12 IC50. The method, then: Recombinant human MMP12 catalytic domain may be expressed and purified as described by Parkar A. A. et al, (2000), Protein Expression and Purification, 20, 152. The purified enzyme can be used to monitor inhibitors of activity as follows: MMP12 (50 ng/ml final concentration) is incubated for 60 minutes at room temperature with the synthetic substrate Mca-Pro-Cha-Gly-Nva-His-Ala-Dpa-NH2 (10 μM) in assay buffer (0.1M “Tris-HCl” (trade mark) buffer, pH 7.3 containing 0.1M NaCl, 20 mM CaCl2, 0.020 mM ZnCl and 0.05% (w/v) “Brij 35” (trade mark) detergent) in the presence (10 concentrations) or absence of inhibitors. Activity is determined by measuring the fluorescence at λex 320 nm and λem 405 nm. Percent inhibition is calculated as follows: % Inhibition is equal to the [Fluorescenceplus inhibitor−Fluorescencebackground] divided by the [Fluorescenceminus inhibitor−Fluorescencebackground]. MMP8

T3 sequence (P39900 106-263 limits assumed): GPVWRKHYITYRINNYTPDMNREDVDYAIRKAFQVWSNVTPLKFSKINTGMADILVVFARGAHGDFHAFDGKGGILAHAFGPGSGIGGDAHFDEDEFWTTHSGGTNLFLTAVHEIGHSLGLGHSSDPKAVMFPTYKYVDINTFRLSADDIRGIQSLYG

What is called IC50 is the concentration at which inhibition is half-maximal. For `C[C@]1(CS(=O)(=O)N2CCc3cc(-c4cnc(C(F)(F)F)nc4)ccc3C2)NC(=O)NC1=O` [Example 1, (5)-5-Methyl-5-({[6-[2-(trifluoromethyl)pyrimidin-5-yl]-3,4-dihydroisoquinolin-2(1H)-yl]sulfonyl}methyl)imidazolidine-2,4-dione], the IC50 was greater than 10000 nM in assay [1], 29.3 nM in assay [2] and 10.4 nM in assay [3].
On to `C[C@]1(CS(=O)(=O)N2CCc3cc(-c4ccc(Cl)cc4)ccc3C2)NC(=O)NC1=O` [Example 2, (5S)-5-({[6-(4-Chlorophenyl)-3,4-dihydroisoquinolin-2(1H)-yl]sulfonyl}methyl)-5-methylimidazolidine-2,4-dione], for which the IC50 is 415 nM in assay [1], 3.5 nM in assay [2] and 1.4 nM in assay [3].
For `C[C@]1(CS(=O)(=O)N2CCc3cc(-c4ccc(Cl)cc4)ncc3C2)NC(=O)NC1=O` [Example 5, (5S)-5-({[6-(4-Chlorophenyl)-3,4-dihydro-2,7-naphthyridin-2(1H)-yl]sulfonyl}methyl)-5-methylimidazolidine-2,4-dione] the same measures were 1990 nM, 8.3 nM and 7 nM.
